Results: patent EP0126944B1, “Use of 6-(Z) or 2-(Z) configurational 3,7,11-trimethyl-dodeca-2,6,10-trien-1-ols as bacteriostats in cosmetic products” (Dragoco Gerberding & Co. GmbH, priority 1983, dated 1984)

Columns and labels:
Experiment in all cases: Vertical diffusion test (impregnated filter paper embedded in agar)
Assay type in all cases: cell-based
[1] = test system: Staphylococcus aureus SG 511; settings: for Vertikaler Diffusionstest, Staphylococcus aureus SG 511 10^4 / Vertikaler Diffusionstest, Staphylococcus aureus SG 511 10^6 KBE/ml / antibakterielle Wirkung: 0,3 %; for Vertikaler Diffusionstest, Staphylococcus aureus SG 511 10^4 / Vertikaler Diffusionstest, Staphylococcus aureus SG 511 10^6 KBE/ml: 0,2 ml/ 15,9 cm^2; for Vertikaler Diffusionstest, Staphylococcus aureus SG 511 10^4: 10^4 KBE/ml; for antibakterielle Wirkung: Tabelle 1
Source text: (§1) Die mikrobiologischen Prüfungen wurden mit den Bakterienarten Staphylococcus aureus, Corynebacterium species und Staphylococcus epidermidis durchgeführt. Es wurden jeweils Konzentrationen von 0,3 % der Verbindungen 1a, b, c, 2 gegen unterschiedliche Keimzahlen eingesetzt und 1. mit einer Aufschwemmung von 10^4 koloniebildenden Einheiten/ml (KBE/ml) und 2. mit 10^6 KBE/ml versehen. Die Durchführung der Untersuchung erfolgte in üblicher Weise, indem Filterpapierplättchen mit einer Fläche von 15,9 cm^2 mit je 0,2 ml der 0,3 % igen alkoholischen Konzentrationen beschickt wurden. Nach Trocknen der aufgebrachten Lösungen wurden die Filterpapierplättchen dann in den Agar von Petrischalen eingebettet, so daß die Oberfläche mit einer dünnen Agarschicht überschichtet werden konnte. Danach wurde die ganze Platte mit den Testbakterien in unterschiedlicher Keimkonzentration beimpft. (Tabelle 1)

Corynebacterium species = settings: 0,3 %; for Vertikaler Diffusionstest, Corynebacteriumt species 10^4 / Vertikaler Diffusionstest, Corynebacteriumt species 10^6 KBE/ml: 0,2 ml/ 15,9 cm^2; for Vertikaler Diffusionstest, Corynebacteriumt species 10^4: 10^4 KBE/ml; for antibakterielle Wirkung: Tabelle 1, Corynebacterium species
Source text: as §1

[2] = test system: Staphylococcus epidermidis; settings: for Vertikaler Diffusionstest, Staphylococcus epidermidis 10^4 / Vertikaler Diffusionstest, Staphylococcus epidermidis 10^6 KBE/ml / Hemmung / antibakterielle Wirkung: 0,3 %; for Vertikaler Diffusionstest, Staphylococcus epidermidis 10^4 / Vertikaler Diffusionstest, Staphylococcus epidermidis 10^6 KBE/ml: 0,2 ml/ 15,9 cm^2; for Vertikaler Diffusionstest, Staphylococcus epidermidis 10^4: 10^4 KBE/ml; for Hemmung / antibakterielle Wirkung: Tabelle 1
Source text: as §1

SMILES | Vertikaler Diffusionstest, Staphylococcus aureus SG 511 10^4 [1] | Vertikaler Diffusionstest, Staphylococcus aureus SG 511 10^6 KBE/ml [1] | antibakterielle Wirkung ([1]; Staphylococcus aureus) | Vertikaler Diffusionstest, Corynebacteriumt species 10^4 (Corynebacterium species) | Vertikaler Diffusionstest, Corynebacteriumt species 10^6 KBE/ml (Corynebacterium species) | antibakterielle Wirkung (Corynebacterium species) | Vertikaler Diffusionstest, Staphylococcus epidermidis 10^4 [2] | Vertikaler Diffusionstest, Staphylococcus epidermidis 10^6 KBE/ml [2] | Hemmung ([2]; Staphylococcus epidermidis) | antibakterielle Wirkung ([2]; Staphylococcus epidermidis) | Wirksamkeit ([1]; compared with 1a, b, c, Staphylococcus aureus) | Wirksamkeit ([2]; compared with 1a, b, c, Staphylococcus epidermidis)
CC(C)=CCC/C(C)=C/CC/C(C)=C\CO [Substanz 1a] | 0 | 0 | deutliche antibakterielle Wirkung | 0 | 0 | deutliche antibakterielle Wirkung | 0 - 1 | 0 - 1 | fast totale Hemmung | deutliche antibakterielle Wirkung | – | –
CC(C)=CCC/C(C)=C\CC/C(C)=C/CO [Substanz 1b] | 0 | 0 | deutliche antibakterielle Wirkung | 0 | 0 | deutliche antibakterielle Wirkung | 0 | 0 - 1 | fast totale Hemmung | deutliche antibakterielle Wirkung | – | –
CC(C)=CCC/C(C)=C\CC/C(C)=C\CO [Substanz 1c] | 0 | 0 | deutliche antibakterielle Wirkung | 0 | 0 | deutliche antibakterielle Wirkung | 0 | 0 - 1 | fast totale Hemmung | deutliche antibakterielle Wirkung | – | –
CC(C)=CCCC(C)=CCCC(C)=CCO [Substanz 2, Farnesol, reference compound] | 0 - 1 | 0 - 1 | – | 0 | 0 | – | 1 - 2 | 1 - 2 | – | – | etwas geringerer Wirksamkeit | etwas geringerer Wirksamkeit
